From patent publication US20110118309A1, “USE OF HDAC INHIBITORS FOR THE TREATMENT OF HODGKIN'S DISEASE” (priority 2008, published 2011) come the findings set out here.

For one experiment, the system named is CTCL cell lines. Briefly: Sensitivity of CTCL cell lines. Type of experiment: cell-based. An excerpt:
(§1) Bcl2 may be a patient stratification marker

Experiment [1] deals with Hodgkin lymphoma cell lines, RPMI6666, HD-MY-Z, and L428. The experiment in a line: Proliferation and viability of 3 Hodgkin lymphoma cell lines. Type of experiment: cell-based. The settings on record: range over 3 HL cell lines; units printed in the value (picomolar, nanomolar).
From the text: as §1

In a further experiment the test system is RPMI 6666. The experiment in a line: Single agent anti-tumor activity of LBH589 in Hodgkins Lymphoma cell lines in vitro (growth inhibition and cell kill). The settings on record: RPMI 6666, Hodgkins Lymphoma. Type of experiment: cell-based.
From the text: as §1
(§2) Single agent anti-tumor activity of LBH589 in Hodgkins Lymphoma cell lines in vitro is outlined in table I.

A further experiment has as its system HD-MY-Z. The description is as above. Type of experiment: cell-based.
From the text: as §1, §2

Another experiment deals with L-428. The description is as above. Type of experiment: cell-based. The note with it: L-428, Hodgkins Lymphoma.
From the text: as §1, §2

The next experiment deals with CTCL mouse model. The experiment in a line: CTCL mouse model. It counts as in vivo.
From the text: as §1

In experiment [2] the test system is Cell lines of mantle cell and follicular lymphoma. The experiment in a line: Sensitivity of mantle cell and follicular lymphoma cell lines. Type of experiment: cell-based.
From the text: as §1

Experiment [3] concerns E[…]-myc mouse lymphoma model. The experiment in a line: E[…]-myc mouse lymphoma model. Type of experiment: in vivo.
From the text: as §1

[4] abbreviates: Homo sapiens, read-out: IC50: Concentration of LBH589 required to inhibit growth of cell line by 50%.

With `Cc1[nH]c2ccccc2c1CCNCc1ccc(/C=C/C(=O)NO)cc1` [LBH589, N-hydroxy-3-[4-[[[2-(2-methyl-1H-indol-3-yl)-ethyl]-amino]methyl]phenyl]-2E-2-propenamide], the “sensitivity to LBH589” value in the experiment with CTCL cell lines is on record as “extremely sensitive”; in experiment [2] it was “extreme sensitivity”. Moreover, the IC50 is 0.2 to 50 nM in experiment [1], 0.2 nM in the experiment with RPMI 6666 (setting [4]), 50.8 nM with HD-MY-Z (read-out: IC50: Concentration of LBH589 required to inhibit growth of cell line by 50%) and 10.5 nM in the experiment with L-428 (setting [4]). Further, the “LD90: Concentration of LBH589 required to kill a cell line population by 90%” value was 274.7 in the experiment on RPMI 6666 (in nM), >10,000 in the experiment with HD-MY-Z (in nM) and 57.5 nM in the experiment on L-428. The tumor regression entry in the experiment on CTCL mouse model is recorded as “profound tumor regression”. Moreover, the regression of lymphoma entry in experiment [3] was “produces regression”. Also, in experiment [3], the survival result was “extends survival”.
